Assay: Human HepG2 cell viability assay in 384 well format
Format: toxicity, cell-based
Design: dose 125 nL, time 70.5 hour; cytotoxicity at 70.5 h: concentration not given beside the values
Conditions: HepG2 cells, read-out: Inhibition

SMILES | cytotoxicity at 70.5 h
CC1Cn2c(nc3c2c(=O)[nH]c(=O)n3C)O1 (configuration not stated) | -12.3%
CN1CCN(C(=O)[C@@H]2CCO[C@@H]3CCN(c4ncccn4)C[C@@H]32)CC1 | -3.98%
Cc1noc([C@@]23CCO[C@@H]2CCN(C(=O)c2sccc2C)C3)n1 | -1.6%
Cc1cccc(CN2C[C@@H]3CCCO[C@@H]3[C@H](NS(C)(=O)=O)C2)n1 | -3.48%
Cn1cc(N2CC3(CCN(S(=O)(=O)C4CC4)C3)CC2=O)cn1 (configuration not stated) | -1.83%
Cc1cccc(CN2C[C@@H]3CN(C(=O)c4ccsc4)C[C@@H]3C2=O)c1 | -5.57%
CO[C@H]1CCN(c2ncccn2)[C@H]1Cc1ccccc1 | -6.47%
COCCC(=O)N1CCN(C)c2ncccc2C1 | -6.73%
Cc1nc(N2CCOCC2)nc2c1CN(C(=O)Cc1ccccn1)CC2 | -8.21%
Cc1cc(C(=O)NCC2COCc3c(C)nnn3C2)no1 (configuration not stated) | -6.83%
Cc1nnn2c1COCC(CNC(=O)c1ccc3[nH]ccc3c1)C2 (configuration not stated) | -9.06%
CNC(=O)[C@H]1C[C@@H]2CN(S(=O)(=O)c3ccccc3)C[C@@H]2N1C(C)=O | -3.07%
CNC(=O)N1C[C@H]2CC[C@@]3(N=C(c4ccccc4)NC3=O)[C@H]2C1 | -6.95%
NCC1Cn2nnc(-c3cccc(F)c3)c2CO1 (configuration not stated) | -4.77%
CN(C)C(=O)NC[C@H]1OC[C@@H]2CCN(Cc3ccoc3)C[C@@H]21 | 52.3%
CC(C)NC(=O)N1CC[C@@H]2CN(Cc3cccc(Cl)c3)S(=O)(=O)[C@@H]2CC1 | 27%
Cc1ccc(CN2CCC3(CC(C(=O)NCC4CC4)=NO3)C2)cc1C (configuration not stated) | 27.5%
O=C(N[C@@H]1CN(Cc2cccs2)[C@@H]2CCCO[C@@H]21)C1CC1 | -10.5%
O=C1CO[C@@H]2CN(S(=O)(=O)c3ccccc3)C[C@H]2N1CC1CC1 | -13.1%
O=C(NCc1cccs1)C1CN(C(=O)c2cccs2)CC12CCOCC2 (configuration not stated) | -8.67%
COc1cccc(S(=O)(=O)N2CCn3cnc(COCC4CC4)c3C2)c1 | -10%
CS(=O)(=O)CC(=O)N1C[C@@H]2COC[C@]2(c2nnc(C3CC3)o2)C1 | 4.38%

SMILES | cytotoxicity at 70.5 h
O=C(NCc1cccnc1)C1=NOC2(CCN(S(=O)(=O)C3CC3)C2)C1 (configuration not stated) | -10.8%
CC(C)N(C)C(=O)C1=NOC2(CCN(C(=O)c3ccc(Cl)cc3)C2)C1 (configuration not stated) | -0.00349%
O=C1NC2(CCN(CC(=O)N3CCOCC3)CC2)Nc2ccc(Br)cc21 | -2.15%
Cc1nn(C)cc1CN1CCCC(n2c(=O)oc3ccccc32)C1 (configuration not stated) | 0.702%
CSc1ncc(C(=O)NCCn2nccc2C)cn1 | -2.28%
CC(C)c1ncc(CN2CCC(O)(c3ccccc3F)CC2)cn1 | 2.86%
COCCC(=O)N1CCC2(CC1)CN(S(C)(=O)=O)Cc1ccccc1O2 | -2.27%
CCc1ncc(CN2CCC(O)(c3ccccc3F)CC2)cn1 | -4.61%
Cc1ncc(CN2CCC(O)(c3ccccc3F)CC2)cn1 | -0.616%
Cn1ncc(Cl)c1C(=O)N1CCC(c2nnsc2S(C)(=O)=O)CC1 | 7.94%
COc1cc2c(cc1CCC(=O)O)CCC2 | 17.1%
CCN(CC)S(=O)(=O)c1cc2c3c(c1)c(C)cc(=O)n3CC2 | 3.57%
Cc1cccnc1C(Cc1ccsc1)NCc1cnc(N(C)C)nc1 (configuration not stated) | -8.31%
COc1ccc(C(=O)N2CCOCC2c2[nH]ncc2C)cc1F (configuration not stated) | -3.4%
CO[C@@H]1CCC[C@@H](NC(=O)CCCn2cncn2)[C@H]1O | -1.73%
CCCn1nc(C)c(C(=O)N[C@@H]2CC[C@@H](N3CCCC3)[C@@H]2O)c1C | -6.2%
Cc1nccn1[C@@H]1CC[C@@H](NC(=O)CCCn2cncn2)[C@H]1O | 16.1%
O=C(O)CCCC(=O)NCC1(O)CCN(c2ccnc3cccnc23)C1 (configuration not stated) | 1.69%
CSCC[C@@H]1CN2CCC[C@H]2CN1Cc1coc2ccc(C)cc2c1=O | -1.62%
CC(C)(C)c1ccc(OCC(N)=O)c(CN2C[C@H]3C[C@H](O)C[C@H]3C2)c1 | -7.47%
Cc1ccc(CN2CCOC(c3cnccn3)C2)s1 (configuration not stated) | -5.54%
COc1ccc2c(c1)C(=O)NC1(CC2)CCN(Cc2ccccc2)C1 (configuration not stated) | -3.55%

SMILES | cytotoxicity at 70.5 h
CCOc1ccc(CN2CCC(c3nc(C)cc(C)n3)C2)cc1CO (configuration not stated) | 2.12%
O=C(O)C1CN(c2cncc(Cc3ccccc3)n2)C1 | -3.73%
CN1CCC(c2n[nH]cc2-c2ccnc(N)c2)C1 (configuration not stated) | 0.193%
CC(C)N1CCC(c2n[nH]cc2-c2ccnc(N)c2)C1 (configuration not stated) | 2.17%
CN(C)S(=O)(=O)N1CCC(c2n[nH]cc2-c2ccnc(N)c2)C1 (configuration not stated) | 5.75%
Cc1c[nH]c(C2COCCN2C(=O)c2ccc(=O)[nH]n2)n1 (configuration not stated) | -4.98%
c1ccc(Cc2cccc(C3CCCN3C3CCOCC3)n2)cc1 (configuration not stated) | -13.2%
CC(=O)N1CC(C(=O)N2CCCC(Cn3ccnc3C)C2)C1 (configuration not stated) | -9.41%
CCC(=O)N1CCCC1(C)c1nc(C)no1 (configuration not stated) | -6.82%
OCC(CO)N1CCCC(Cc2ccnc(Nc3ccccn3)c2)C1 (configuration not stated) | -14.9%
O=C(NC1CCCN(c2ccccn2)C1)C1(c2ccccc2F)CC1 (configuration not stated) | 15.1%
CNC(=O)c1sc2ccccc2c1C1CCN(c2nc(C)cc(C)n2)C1 (configuration not stated) | -6.07%
Oc1cc(C2CCCCN2CC2CC2)nc(-c2ccncc2)n1 (configuration not stated) | -10.4%
Cc1nc(C2CCCCN2S(C)(=O)=O)no1 (configuration not stated) | -13.4%
Oc1cc(C2CCCCN2C2CCCC2)nc(-c2ccncc2)n1 (configuration not stated) | -14.1%
Cc1nc(-c2ccc(F)cc2)cc(C2CCNCC2)n1 | -10%
Cc1nn(C(C)C)cc1S(=O)(=O)N(C)Cc1nonc1C | -7.62%
Cc1nnc(C2CCN(c3ccc(F)cc3)CC2)o1 | -9.58%
CN(C)c1nccnc1C1CCN(C2CCCCC2O)CC1 (configuration not stated) | -8.92%
CNc1cc(C2CN(C(=O)c3ccn(C)n3)CCO2)nc(C)n1 (configuration not stated) | 26.5%
CNc1cc(C2CN(C(=O)c3ccccc3)CCO2)nc(C)n1 (configuration not stated) | -5.28%
CNc1cc(C2CN(C(=O)c3cscn3)CCO2)nc(C)n1 (configuration not stated) | 26%

SMILES | cytotoxicity at 70.5 h
O=C(O)c1ccccc1-n1cnc(CN2CCc3ccccc32)c1 | -7.59%
Cc1cc(C)nc(C2CCCN2S(=O)(=O)N2CCOCC2)n1 (configuration not stated) | -4.98%
O=C(N1CCCC1)C1(Cc2ccc(-c3cccs3)cc2)CCNC1 (configuration not stated) | 2.43%
Cc1nc(C2CCNC2)nc2c1CCC(=O)N2C (configuration not stated) | -4.12%
Cc1nccn1-c1cccc(C2CCCN2)n1 (configuration not stated) | -13.4%
Cc1nc(-c2ccc(F)c(F)c2)cc(C2CCNCC2)n1 | -2.44%
CCC(CN1CCOCC1)n1cncc1-c1ccc2c(c1)CCN2CC (configuration not stated) | 21%
O=C(NCc1cncc2c1CCN(Cc1cccc(F)c1)C2)C1CC1 | -1.35%
COc1ccc(CN2C[C@@H]3CCCO[C@@H]3[C@H](NS(C)(=O)=O)C2)cc1 | -9.16%
Cn1cccc1C(=O)N1CCCC2(CCN(CCN3CCCC3)C2=O)C1 (configuration not stated) | -2.83%
CNC(=O)[C@H]1C[C@@H]2CN(S(=O)(=O)c3ccccc3)C[C@@H]2N1C | -8.21%
CS(=O)(=O)N1CC[C@H]2[C@H](C[C@@H](Cn3cncn3)N2CC2CC2)C1 | -1.14%
O=C(NC1CC1)[C@H]1CC[C@@H]2[C@@H](CCN2c2ncc(F)cn2)O1 | -11.8%
NC(=O)N1CCC2(CCN(Cc3cccc(F)c3)CC2)CC1 | -7.24%
O=C(NC1CC1)[C@@H]1CCO[C@@H]2CCN(C3CCOCC3)C[C@H]21 | -4.77%
Cn1cccc1C(=O)N1CCC2(CC1)CN(c1ccccn1)CCO2 | -5.53%
Cn1cc(CN2CCOC3(CCCN(C(=O)c4ccco4)C3)C2)cn1 (configuration not stated) | -6.59%
O=C(NC1CC1)[C@@H]1CCO[C@@H]2CCN(C3CCOCC3)C[C@@H]21 | -8.31%
CC(C)CN1C[C@H]2CCN(c3ncccn3)CC[C@H]2S1(=O)=O | -12.5%
O=C(NCC1CC1)[C@@H]1CCO[C@@H]2CCN(Cc3ccco3)C[C@H]21 | 15.7%
Cc1ccc2c(n1)N(C)CCN(C(=O)C1CC1)C2 | -8.52%
CC(=O)NCC(=O)N1CC[C@H](OCC2CC2)[C@@H]1Cc1cccnc1 | -8.28%

SMILES | cytotoxicity at 70.5 h
CS(=O)(=O)NC[C@H]1OC[C@@H]2CCN(Cc3ccc(F)cc3)C[C@@H]21 | 16.9%
O=C([C@H]1COC[C@H]2CN(C3CCCC3)C[C@H]21)N1CCCCO1 | -12.7%
O=C([C@@H]1COC[C@H]2CN(C3CCOCC3)C[C@H]21)N1CCCCO1 | 18.7%
Cc1nc(N2CCCC2)nc2c1CCN(Cc1ccco1)CC2 | -16.4%
O=C(c1cscn1)N1C[C@H]2CCCC(OCc3cccnc3)[C@H]2C1 (some centres not stated) | -11.5%
COCC(=O)N1CCC(c2nc3ccc(N4CCCC4)cn3n2)CC1 | -5.18%
Cc1ccc(CN2CCc3ncc(CNS(C)(=O)=O)n3CC2)o1 | -12.4%
O=C(Cc1cccnc1)N1CCC2(CC1)CCN(C1CCOCC1)C2 | -3.79%
O=C1N(c2cncnc2)CCC12CCCN(Cc1ccccn1)C2 (configuration not stated) | -9.94%
CN(C)C(=O)COCc1cncc2c1CCN(Cc1cnn(C)c1)C2 | -8.65%
CN1CCN(Cc2cccnc2)C2(CCN(c3ncc(F)cn3)C2)C1=O (configuration not stated) | -6.18%
Cn1cc(CN2CCC3(C2)CN(Cc2ccsc2)C3)cn1 | -6.34%
CC(=O)NCC(=O)N1CCn2cc(CN3CCN(C)CC3)nc2C1 | -11.5%
CN1CCc2onc(CNc3ncccn3)c2C1 | -25.4%
c1cnc(N2CCOCC3(CCCN(CC4CC4)C3)C2)cn1 (configuration not stated) | -5.91%
CC(C)Nc1nc2c(cc1C(=O)NCC1CC1)CCNCC2 | -10%
COCCN1CCc2cc(C(=O)NCC3CC3)c(NC(C)C)nc2CC1 | 24.8%
Cc1cccc(CO[C@@H]2CC[C@H]3[C@H]2OCCN3Cc2ccsc2)n1 | -12.2%
COc1nc2cc(C)ccc2cc1CN(C)Cc1cc(C)[nH]n1 | -6.96%

Source: ChEMBL document CHEMBL3507680, “University of Dundee, Gates Library screen for HepG2 cell viability”
